From patent US20260053811A1, “METHODS OF TREATING HYPERTENSION IN OBESE SUBJECTS” (Mineralys Therapeutics, Inc., priority 2022, published 2026)

Test system: hypertensive subjects
Experiment: Seated automated office blood pressure (AOBP) in randomized, placebo-controlled, dose-ranging study
Type: in vivo, human
Conditions: Part 1
Procedure: A randomized, double-blinded, placebo-controlled, dose-ranging, multicenter study was conducted to evaluate the effect of orally administered Compound A HBr on blood pressure for the treatment of hypertension in male and female subjects ≥18 years of age.
The study consists of two parts. For enrollment into Part 1 of the study, a subject's value of plasma renin activity (PRA) must be ≤1 ng/mL/h based on morning measurement. If the value of PRA >1 ng/mL/h based on morning measurement, then subjects may be eligible to enter Part 2 of the study.
For Part 1, 163 enrolled subjects ≥18 years of age were randomized into 6 equal treatment groups (1:1:1:1:1:1) to 12.5 mg BID, 25 mg BID, 12.5 mg QD, 50 mg QD, 100 mg QD, or placebo. After a review of interim clinical data, the 2 lowest dose levels (12.5 mg QD and 12.5 mg BID) were stopped for future randomization due to a lack of consistent meaningful reduction of blood pressure, but the patients randomized to that point remained in the study through completion. Thus, after the review of interim clinical data, subjects were randomized into 4 equal treatment groups (1:1:1:1) to 25 mg BID, 50 mg QD, 100 mg QD, or placebo.
For Part 2, 36 enrolled subjects ≥18 years of age were randomized (5:1) to either 100 mg QD Compound A HBr or placebo such that the Compound A HBr treatment group consisted of approximately 30 subjects and the placebo treatment group will consist of approximately 6 subjects.
Subjects orally administered the assigned study drug (Compound A HBr or placebo) according to the assigned dosing regimen for 8 weeks beginning on Study Day 1. All subjects in Part 1 (regardless of dosing group) received BID dosing to preserve the integrity of the blind; active drug is administered as the morning dose for all QD dose groups. Subjects returned to the research facility or were seen by the clinical investigator or approved home health care professional at the end of Study Weeks 1, 2, 3, 4, 5, 6, 7, and 8 (±2 days) for protocol-defined efficacy and safety assessments and procedures, assessment of adverse events (AEs), and confirmation of compliance with study drug usage. Subjects also completed a telephone visit and blood pressure (BP) check at home approximately 3 days post last dose of study drug. Subjects attended up to 14 full clinic visits, including a pre-Screening visit, a Screening/start of Placebo Run-in visit, a second visit during Placebo Run-in, a clinic visit to initiate the ABPM procedure, a Randomization visit, 8 weekly visits during double-blind treatment, and an end-of-study visit scheduled 4 weeks after the last study treatment for final efficacy and safety assessments.
An automated oscillometric sphygmomanometer device was used to measure the subjects' systolic and diastolic blood pressure in office after approximately 5 minutes of rest in the seated position.
The primary endpoint is the change in office-measured (mean of last 2 of 5 unattended measurements using an automated oscillometric sphygmomanometer device after approximately 5 minutes of rest in the seated position) systolic blood pressure (SBP) from baseline to the end of Study Week 8.
Secondary endpoints of this study were: • (a) Change in 24-hour ambulatory blood pressure monitoring (ABPM) parameters (systolic and diastolic) from baseline to the end of Study Week 7. • (b) Change in office-measured SBP from baseline to the end of Study Weeks 1, 2, 3, 4, 5, 6, and 7. • (c) Change in office-measured diastolic blood pressure (DBP) from baseline to the end of Study Weeks 1, 2, 3, 4, 5, 6, 7, and 8. • (d) Proportion of subjects who achieve office-measured BP of ≤130/80 mm Hg by the end of Study Week 8.

[1] = 25 mg BID, BMI at baseline 25-30 kg/m^2
[2] = 25 mg BID, BMI at baseline <25 kg/m^2
[3] = 25 mg BID, BMI at baseline >30 kg/m^2
[4] = 25 mg BID, Seated SBP Tertile High
[5] = 25 mg BID, Seated SBP Tertile Low
[6] = 25 mg BID, Seated SBP Tertile Middle
[7] = 25 mg BID, Systolic Blood Pressure Tertile at Baseline High
[8] = 25 mg BID, Systolic Blood Pressure Tertile at Baseline Low
[9] = 25 mg BID, Systolic Blood Pressure Tertile at Baseline Middle
[10] = 25 mg BID, Thiazide Diuretic Use at Baseline No
[11] = 25 mg BID, Thiazide Diuretic Use at Baseline Yes

CC(=O)N[C@H]1CC[C@H](NC(=O)CN2CCN(c3nncc(-c4ccc(C)cc4)n3)CC2)CC1 [Compound A HBr]
Mean (SD) Change from Baseline at Week 8 in Automated Office-Measured Diastolic Blood Pressure (25 mg BID, BMI >30 kg/m^2): −5.33 (8.88) mmHg
Mean (SD) Automated Office-Measured Systolic Blood Pressure at Wk 8 [1]: 134.11 (15.72) mmHg
Mean (SD) Change from Baseline at Week 8 in Automated Office-Measured Systolic Blood Pressure [1]: −4.89 (13.17) mmHg
Mean (SD) Automated Office-Measured Systolic Blood Pressure at Wk 8 [2]: 126.25 (18.52) mmHg
Mean (SD) Change from Baseline at Week 8 in Automated Office-Measured Systolic Blood Pressure [2]: −18.13 (15.56) mmHg
Mean (SD) Automated Office-Measured Systolic Blood Pressure at Wk 8 [3]: 130.93 (17.43) mmHg
Mean (SD) Change from Baseline at Week 8 in Automated Office-Measured Systolic Blood Pressure [3]: −11.13 (13.83) mmHg
Mean (SD) Automated Office-Measured Diastolic Blood Pressure at Wk 8 (25 mg BID, Race Black or AA): 75.43 (10.05) mmHg
Mean (SD) Automated Office-Measured Systolic Blood Pressure at Wk 8 (25 mg BID, Race Black or AA): 124.00 (15.68) mmHg
Mean (SD) Change from Baseline at Week 8 in Automated Office-Measured Diastolic Blood Pressure (25 mg BID, Race Black or AA): −7.79 (9.03) mmHg
Mean (SD) Change from Baseline at Week 8 in Automated Office-Measured Systolic Blood Pressure (25 mg BID, Race Black or AA): −13.29 (15.91) mmHg
Mean (SD) Automated Office-Measured Diastolic Blood Pressure at Wk 8 (25 mg BID, Race Other): 75.43 (14.14) mmHg
Mean (SD) Automated Office-Measured Systolic Blood Pressure at Wk 8 (25 mg BID, Race Other): 133.71 (16.53) mmHg
Mean (SD) Change from Baseline at Week 8 in Automated Office-Measured Diastolic Blood Pressure (25 mg BID, Race Other): −2.31 (12.36) mmHg
Mean (SD) Change from Baseline at Week 8 in Automated Office-Measured Systolic Blood Pressure (25 mg BID, Race Other): −9.07 (13.59) mmHg
Mean (SD) Automated Office-Measured Diastolic Blood Pressure at Wk 8 [4]: 74.00 (7.39) mmHg
Mean (SD) Change from Baseline at Week 8 in Automated Office-Measured Diastolic Blood Pressure [4]: −7.36 (5.62) mmHg
Mean (SD) Automated Office-Measured Diastolic Blood Pressure at Wk 8 [5]: 72.40 (9.55) mmHg
Mean (SD) Change from Baseline at Week 8 in Automated Office-Measured Diastolic Blood Pressure [5]: −6.15 (8.84) mmHg
Mean (SD) Automated Office-Measured Diastolic Blood Pressure at Wk 8 [6]: 79.09 (17.89) mmHg
Mean (SD) Change from Baseline at Week 8 in Automated Office-Measured Diastolic Blood Pressure [6]: 0.91 (15.57) mmHg
Mean (SD) Automated Office-Measured Diastolic Blood Pressure at Wk 8 (25 mg BID, Sex Female): 77.12 (15.02) mmHg
Mean (SD) Automated Office-Measured Systolic Blood Pressure at Wk 8 (25 mg BID, Sex Female): 132.88 (16.99) mmHg
Mean (SD) Change from Baseline at Week 8 in Automated Office-Measured Diastolic Blood Pressure (25 mg BID, Sex Female): −2.41 (13.79) mmHg
Mean (SD) Change from Baseline at Week 8 in Automated Office-Measured Systolic Blood Pressure (25 mg BID, Sex Female): −10.62 (14.75) mmHg
Mean (SD) Automated Office-Measured Diastolic Blood Pressure at Wk 8 (25 mg BID, Sex Male): 72.82 (9.34) mmHg
Mean (SD) Automated Office-Measured Systolic Blood Pressure at Wk 8 (25 mg BID, Sex Male): 128.82 (16.45) mmHg
Mean (SD) Change from Baseline at Week 8 in Automated Office-Measured Diastolic Blood Pressure (25 mg BID, Sex Male): −5.64 (7.70) mmHg
Mean (SD) Change from Baseline at Week 8 in Automated Office-Measured Systolic Blood Pressure (25 mg BID, Sex Male): −9.36 (13.49) mmHg
Mean (SD) Automated Office-Measured Systolic Blood Pressure at Wk 8 [7]: 139.86 (16.99) mmHg
Mean (SD) Change from Baseline at Week 8 in Automated Office-Measured Systolic Blood Pressure [7]: −14.14 (13.63) mmHg
Mean (SD) Automated Office-Measured Systolic Blood Pressure at Wk 8 [8]: 120.70 (13.06) mmHg
Mean (SD) Change from Baseline at Week 8 in Automated Office-Measured Systolic Blood Pressure [8]: −12.50 (13.48) mmHg
Mean (SD) Automated Office-Measured Systolic Blood Pressure at Wk 8 [9]: 135.45 (15.29) mmHg
Mean (SD) Change from Baseline at Week 8 in Automated Office-Measured Systolic Blood Pressure [9]: −5.41 (14.64) mmHg
Automated Office-Measured Diastolic Blood Pressure, Week 8, Mean (SD) [10]: 74.36 (8.31) mmHg
Mean (SD) Automated Office-Measured Systolic Blood Pressure at Wk 8 [10]: 132.45 (15.21) mmHg
Mean (SD) Change from Baseline at Week 8 in Automated Office-Measured Diastolic Blood Pressure [10]: −6.09 (7.34) mmHg
Mean (SD) Change from Baseline at Week 8 in Automated Office-Measured Systolic Blood Pressure [10]: −9.32 (14.08) mmHg
Automated Office-Measured Diastolic Blood Pressure, Week 8, Mean (SD) [11]: 76.12 (15.60) mmHg
Mean (SD) Automated Office-Measured Systolic Blood Pressure at Wk 8 [11]: 130.53 (17.84) mmHg
Mean (SD) Change from Baseline at Week 8 in Automated Office-Measured Diastolic Blood Pressure [11]: −2.12 (13.83) mmHg
Mean (SD) Change from Baseline at Week 8 in Automated Office-Measured Systolic Blood Pressure [11]: −10.65 (14.39) mmHg
Mean (SD) Automated Office-Measured Systolic Blood Pressure at Wk 8 (50 mg QD, ACEi/ARB No): 131.13 (13.27) mmHg
Mean (SD) Change from Baseline at Week 8 in Automated Office-Measured Systolic Blood Pressure (50 mg QD, ACEi/ARB No): −6.75 (15.62) mmHg
Mean (SD) Automated Office-Measured Systolic Blood Pressure at Wk 8 (50 mg QD, ACEi/ARB Yes): 127.65 (14.07) mmHg
